This is an account of results in US20230159532A1, “PARATHYROID HORMONE (PTH) RECEPTOR ANTAGONISTS AND USES THEREOF” (Crinetics Pharmaceuticals, Inc., priority 2021, published 2023).

In the assay the target is T1, human PTHR1 receptor (Homo sapiens, UniProt Q03431).
T1 construct: purchased Eurofins HTS030M
T1 sequence (Q03431 27-593): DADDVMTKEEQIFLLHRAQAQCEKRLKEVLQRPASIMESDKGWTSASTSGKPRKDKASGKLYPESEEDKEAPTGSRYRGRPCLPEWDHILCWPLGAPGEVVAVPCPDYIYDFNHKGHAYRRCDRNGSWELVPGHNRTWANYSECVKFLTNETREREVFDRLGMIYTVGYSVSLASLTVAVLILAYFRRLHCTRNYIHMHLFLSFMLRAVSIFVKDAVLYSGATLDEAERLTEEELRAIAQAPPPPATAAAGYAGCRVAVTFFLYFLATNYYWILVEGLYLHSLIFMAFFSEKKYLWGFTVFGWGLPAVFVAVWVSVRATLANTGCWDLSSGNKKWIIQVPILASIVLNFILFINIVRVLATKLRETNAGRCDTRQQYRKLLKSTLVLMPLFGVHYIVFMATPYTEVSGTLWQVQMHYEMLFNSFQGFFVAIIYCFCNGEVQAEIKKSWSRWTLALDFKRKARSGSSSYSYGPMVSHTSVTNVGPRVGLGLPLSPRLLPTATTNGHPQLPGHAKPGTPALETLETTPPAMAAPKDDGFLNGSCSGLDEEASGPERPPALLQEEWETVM
The experiment in a line: Competitive antagonist binding assay for hPTH-R1 (radioactive competition binding, SPA beads). Conditions: human PTHR1 membranes, [125I]-[Nle8,18,Tyr34]-PTH(1-34) 0.2 nM, 90 minutes at room temperature; read-out: hPTHR1 Ki. In outline:
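Human PTHR1 membranes on SPA beads incubated 90 min at room temperature with compound (typically 0-10,000 nM final) and 0.2 nM [125I]-[Nle8,18,Tyr34]-PTH(1-34) in HEPES buffer with MgCl2, CaCl2, BSA, Triton X-100 and protease inhibitors, pH 7.4. Scintillation signal read; Ki values derived.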

Each structure is given as a SMILES string.

Regarding `CCN1C(=O)N(c2ncc(NCCNCCO)cc2F)c2cc(Cl)ccc2-c2cc(Cl)cnc21` [2-10, 4,13-dichloro-8-ethyl-10-[3-fluoro-5-({2-[(2-hydroxyethyl)amino]ethyl}amino)pyridin-2-yl]-6,8,10-triazatricyclo[9.4.0.0^2,7]pentadeca-1(11),2(7),3,5,12,14-hexaen-9-one], the Ki is less than 0.1 µM. As to `CCN1C(=O)N(c2ncc(NCCNC)cc2F)c2cc(Cl)ccc2-c2cc(Cl)cnc21` [2-11, 4,13-dichloro-8-ethyl-10-(3-fluoro-5-{[2-(methylamino)ethyl]amino}pyridin-2-yl)-6,8,10-triazatricyclo[9.4.0.0^2,7]pentadeca-1(11),2(7),3,5,12,14-hexaen-9-one], the Ki is less than 0.1 µM. With `CCN1C(=O)N(c2ccc(NCCNC3CCOCC3)cc2F)c2cc(Cl)ccc2-c2cc(Cl)cnc21` [2-12, 4,13-dichloro-8-ethyl-10-[2-fluoro-4-({2-[(oxan-4-yl)amino]ethyl}amino)phenyl]-6,8,10-triazatricyclo[9.4.0.0^2,7]pentadeca-1(11),2(7),3,5,12,14-hexaen-9-one] the figure was less than 0.1 µM; with `CCN1C(=O)N(c2ccc(NCCNC3CCOCC3)cc2)c2cc(Cl)ccc2-c2cc(Cl)cnc21` [2-13, 4,13-dichloro-8-ethyl-10-[4-({2-[(oxan-4-yl)amino]ethyl}amino)phenyl]-6,8,10-triazatricyclo[9.4.0.0^2,7]pentadeca-1(11),2(7),3,5,12,14-hexaen-9-one], less than 0.1 µM. Take `CCN1C(=O)N(c2ncc(NCCNC3CCOCC3)cc2F)c2cc(Cl)ccc2-c2cc(Cl)cnc21` [2-14, 4,13-dichloro-8-ethyl-10-[3-fluoro-5-({2-[(oxan-4-yl)amino]ethyl}amino)pyridin-2-yl]-6,8,10-triazatricyclo[9.4.0.0^2,7]pentadeca-1(11),2(7),3,5,12,14-hexaen-9-one]: the Ki is less than 0.1 µM.

As to `CCN1C(=O)N(c2c(F)cc(NCCNC)cc2F)c2cc(Cl)ccc2-c2ccc(C)nc21` [3-1, 13-chloro-10-(2,6-difluoro-4-{[2-(methylamino)ethyl]amino}phenyl)-8-ethyl-5-methyl-6,8,10-triazatricyclo[9.4.0.0^2,7]pentadeca-1(11),2(7),3,5,12,14-hexaen-9-one], the Ki was less than 0.1 µM. Regarding `CCN1C(=O)N(c2c(F)cc(NCCNCCO)cc2F)c2cc(Cl)c(C)cc2-c2cccnc21` [3-2, 13-chloro-10-[2,6-difluoro-4-({2-[(2-hydroxyethyl)amino]ethyl}amino)phenyl]-8-ethyl-14-methyl-6,8,10-triazatricyclo[9.4.0.0^2,7]pentadeca-1(11),2(7),3,5,12,14-hexaen-9-one], the Ki is less than 0.1 µM. For the molecule `CCN1C(=O)N(c2c(F)cc(NCCNC)cc2F)c2cc(Cl)c(C)cc2-c2cccnc21` [3-3, 13-chloro-10-(2,6-difluoro-4-{[2-(methylamino)ethyl]amino}phenyl)-8-ethyl-14-methyl-6,8,10-triazatricyclo[9.4.0.0^2,7]pentadeca-1(11),2(7),3,5,12,14-hexaen-9-one], the Ki is less than 0.1 µM.

On to `CCN1C(=O)N(c2c(F)cc(NCCNCCO)cc2F)c2cc(Cl)ccc2-c2c1ncc(Cl)c2C` [3-4, 4,13-dichloro-10-[2,6-difluoro-4-({2-[(2-hydroxyethyl)amino]ethyl}amino)phenyl]-8-ethyl-3-methyl-6,8,10-triazatricyclo[9.4.0.0^2,7]pentadeca-1(11),2(7),3,5,12,14-hexaen-9-one], for which the Ki is less than 0.1 µM.

As to `CCN1C(=O)N(c2c(F)cc(NCCNC)cc2F)c2cc(Cl)ccc2-c2c1ncc(Cl)c2C` [3-5, 4,13-dichloro-10-(2,6-difluoro-4-{[2-(methylamino)ethyl]amino}phenyl)-8-ethyl-3-methyl-6,8,10-triazatricyclo[9.4.0.0^2,7]pentadeca-1(11),2(7),3,5,12,14-hexaen-9-one], the Ki was less than 0.1 µM.

`CCN1C(=O)N(c2c(F)cc(NCCNCCO)cc2F)c2cc(Cl)ccc2-c2c1ncc(F)c2C` [3-6, 13-chloro-10-[2,6-difluoro-4-({2-[(2-hydroxyethyl)amino]ethyl}amino)phenyl]-8-ethyl-4-fluoro-3-methyl-6,8,10-triazatricyclo[9.4.0.0^2,7]pentadeca-1(11),2(7),3,5,12,14-hexaen-9-one]: the Ki is less than 0.1 µM. As to `CCN1C(=O)N(c2c(F)cc(NCCNC)cc2F)c2cc(Cl)ccc2-c2c1ncc(F)c2C` [3-7, 13-chloro-10-(2,6-difluoro-4-{[2-(methylamino)ethyl]amino}phenyl)-8-ethyl-4-fluoro-3-methyl-6,8,10-triazatricyclo[9.4.0.0^2,7]pentadeca-1(11),2(7),3,5,12,14-hexaen-9-one], the Ki is less than 0.1 µM. In the case of `CCN1C(=O)N(c2c(F)cc(NCCN)cc2F)c2cc(Cl)ccc2-c2c1ncc(Cl)c2C` [3-8, 10-{4-[(2-aminoethyl)amino]-2,6-difluorophenyl}-4,13-dichloro-8-ethyl-3-methyl-6,8,10-triazatricyclo[9.4.0.0^2,7]pentadeca-1(11),2(7),3,5,12,14-hexaen-9-one], the Ki was in the range of 0.1 to 1 µM. Turning to `CCN1C(=O)N(c2c(F)cc(NCCNC)cc2F)c2c(ccc(Cl)c2F)-c2cc(Cl)cnc21` [3-9, 4,13-dichloro-10-(2,6-difluoro-4-{[2-(methylamino)ethyl]amino}phenyl)-8-ethyl-12-fluoro-6,8,10-triazatricyclo[9.4.0.0^2,7]pentadeca-1(11),2(7),3,5,12,14-hexaen-9-one], the Ki is less than 0.1 µM.

`CCN1C(=O)N(c2c(F)cc(NCCNCCO)cc2F)c2c(ccc(Cl)c2F)-c2cc(Cl)cnc21` [3-10, 4,13-dichloro-10-[2,6-difluoro-4-({2-[(2-hydroxyethyl)amino]ethyl}amino)phenyl]-8-ethyl-12-fluoro-6,8,10-triazatricyclo[9.4.0.0^2,7]pentadeca-1(11),2(7),3,5,12,14-hexaen-9-one]: the Ki is less than 0.1 µM. As for `CCN1C(=O)N(c2c(F)cc(NCCNCCCC(=O)O)cc2F)c2c(ccc(Cl)c2F)-c2cc(Cl)cnc21` [3-11, 4-({2-[(4-{4,13-dichloro-8-ethyl-12-fluoro-9-oxo-6,8,10-triazatricyclo[9.4.0.0^2,7]pentadeca-1(11),2(7),3,5,12,14-hexaen-10-yl}-3,5-difluorophenyl)amino]ethyl}amino)butanoic acid], the Ki was less than 0.1 µM. In the case of `CCN1C(=O)N(c2c(F)cc(NCCNCCO)cc2F)c2cc(C#N)ncc2-c2cc(F)cnc21` [3-12, 8-[2,6-difluoro-4-({2-[(2-hydroxyethyl)amino]ethyl}amino)phenyl]-10-ethyl-14-fluoro-9-oxo-4,8,10,12-tetraazatricyclo[9.4.0.0^2,7]pentadeca-1(11),2(7),3,5,12,14-hexaene-5-carbonitrile], the Ki was less than 0.1 µM.

Take `CCN1C(=O)N(c2c(F)cc(NCCNCCO)cc2F)c2cc(C#N)cnc2-c2cc(F)cnc21` [3-13, 8-[2,6-difluoro-4-({2-[(2-hydroxyethyl)amino]ethyl}amino)phenyl]-10-ethyl-14-fluoro-9-oxo-3,8,10,12-tetraazatricyclo[9.4.0.0^2,7]pentadeca-1(11),2(7),3,5,12,14-hexaene-5-carbonitrile]: the Ki is less than 0.1 µM.

For the molecule `CCN1C(=O)N(c2c(F)cc(NCCNCCO)cc2F)c2nc(C#N)ccc2-c2cc(F)cnc21` [3-14, 8-[2,6-difluoro-4-({2-[(2-hydroxyethyl)amino]ethyl}amino)phenyl]-10-ethyl-14-fluoro-9-oxo-6,8,10,12-tetraazatricyclo[9.4.0.0^2,7]pentadeca-1(11),2(7),3,5,12,14-hexaene-5-carbonitrile], the Ki was less than 0.1 µM.

In general, Ki refers to the equilibrium dissociation constant of an inhibitor or competing ligand from its target.
